Common to all, as to assay type: tissue-based
For one test, the target named is Cannabinoid receptor 1 (Rattus norvegicus, UniProt P20272). In words: Displacement of [3H][…] from CB1 receptor in Rattus norvegicus (rat) cerebellum homogenate after 2 hr by scintillation counting.
The target of test [1] is Cannabinoid receptor 1 (Rattus norvegicus) (UniProt P20272). Kind of test: Displacement of [3H][…] from CB1 receptor in Rattus norvegicus (rat) cerebellum homogenate at 1 uM after 2 hr by scintillation counting. On the technique in general: Loss of bound radioactivity is the signal in a displacement assay; it reports binding, not function.
Test [2] shares this target. Kind of test: Displacement of [3H][…] from CB1 receptor in Rattus norvegicus (rat) cerebellum homogenate at 100 uM after 2 hr by scintillation counting.

SMILES strings stand for the structures.

Sequence of Cannabinoid receptor 1 (P20272 whole entry): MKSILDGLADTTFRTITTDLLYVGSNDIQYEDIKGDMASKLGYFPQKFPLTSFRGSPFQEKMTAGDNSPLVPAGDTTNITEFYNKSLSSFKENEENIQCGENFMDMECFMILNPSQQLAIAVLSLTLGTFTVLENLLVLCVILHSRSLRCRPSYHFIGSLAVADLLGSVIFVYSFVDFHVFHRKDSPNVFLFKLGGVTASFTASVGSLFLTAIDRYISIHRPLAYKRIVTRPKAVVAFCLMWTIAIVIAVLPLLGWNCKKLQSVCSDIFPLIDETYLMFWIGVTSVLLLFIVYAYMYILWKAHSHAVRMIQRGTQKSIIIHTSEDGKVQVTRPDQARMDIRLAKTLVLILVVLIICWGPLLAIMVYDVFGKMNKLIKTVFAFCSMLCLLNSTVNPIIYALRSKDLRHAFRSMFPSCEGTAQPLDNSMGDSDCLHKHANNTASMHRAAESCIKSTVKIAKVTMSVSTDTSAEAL
Sequence of Cannabinoid receptor 1 (Rattus norvegicus) (P20272 whole entry): as above

The Ki is the equilibrium dissociation constant of an inhibitor or competing ligand from its target. For the compound `CCC/C=C\Cn1nnc(-c2ccc(Cl)cc2Cl)c1-c1ccc(Cl)cc1`, on Cannabinoid receptor 1, the Ki result was “ND(Insoluble)”. For the compound `Clc1ccc(-c2nn(Cc3ccccc3)nc2-c2ccc(Cl)cc2Cl)cc1`, the Ki on Cannabinoid receptor 1 (read-out: Ki) worked out at 230 nM.

As to `COC(=O)CCn1nc(-c2ccc(Cl)cc2)c(-c2ccc(Cl)cc2Cl)n1`, at Cannabinoid receptor 1 (read-out: Ki), the inhibition constant (Ki) stood at 2360 nM. Regarding `ClCCn1nc(-c2ccc(Cl)cc2)c(-c2ccc(Cl)cc2Cl)n1`, the inhibition constant (Ki) at Cannabinoid receptor 1 (read-out: Ki) worked out at 80 nM. Same read-out and setting: the value for `COC(=O)Cn1nnc(-c2ccc(Cl)cc2Cl)c1-c1ccc(Cl)cc1` was 247 nM; that for `FCCn1nc(-c2ccc(Cl)cc2)c(-c2ccc(Cl)cc2Cl)n1` was 79 nM; that for `N#CCn1nc(-c2ccc(Cl)cc2)c(-c2ccc(Cl)cc2Cl)n1` was 232 nM.

For the compound `OCCn1nc(-c2ccc(Cl)cc2)c(-c2ccc(Cl)cc2Cl)n1`, the Ki at Cannabinoid receptor 1 (read-out: Ki) was 660 nM.

For the compound `OCCn1nnc(-c2ccc(Cl)cc2Cl)c1-c1ccc(Cl)cc1`, at Cannabinoid receptor 1 (read-out: Ki), the inhibition constant (Ki) came to 163 nM.

`CCCCCCn1nnc(-c2ccc(Cl)cc2Cl)c1-c1ccc(Cl)cc1`: the Ki entry on Cannabinoid receptor 1 was “ND(Insoluble)”. One may read the inhibition as the percentage by which the read-out fell short of the control. A low value points to a response near the control. In the case of `CCOC(=O)CCn1nc(-c2ccc(Cl)cc2)c(-c2ccc(Cl)cc2Cl)n1`, the inhibition in test [1] amounted to 22%. Take `Clc1ccc(-c2c(-c3ccc(Cl)cc3Cl)nnn2Cc2ccccc2)cc1`: the Ki on Cannabinoid receptor 1 (read-out: Ki) was determined as 187 nM. `N#CCCn1nc(-c2ccc(Cl)cc2)c(-c2ccc(Cl)cc2Cl)n1`: the inhibition in test [1] was found to be 26%. `CCCn1nnc(-c2ccc(Cl)cc2Cl)c1-c1ccc(Cl)cc1`: at Cannabinoid receptor 1 (read-out: Ki), the inhibition constant Ki was determined as 152 nM. Same read-out and setting: the value for `FCCn1nnc(-c2ccc(Cl)cc2Cl)c1-c1ccc(Cl)cc1` was 421 nM. In the case of `CCCCOC(=O)n1nc(-c2ccc(Cl)cc2)c(-c2ccc(Cl)cc2Cl)n1`, in test [2], the inhibition came out at 30%. `COC(=O)Cn1nc(-c2ccc(Cl)cc2)c(-c2ccc(Cl)cc2Cl)n1`: the inhibitory constant (Ki) on Cannabinoid receptor 1 (read-out: Ki) turned out to be 855 nM.

For the compound `C=CCn1nnc(-c2ccc(Cl)cc2Cl)c1-c1ccc(Cl)cc1`, the Ki entry on Cannabinoid receptor 1 was “ND(Insoluble)”.
